According to patent US11366114B2, “Genetically encoded fluorescent sensors for detecting ligand bias and intracellular signaling through cAMP pathways” (MONTANA MOLECULAR LLC, priority 2013, dated 2022):

Columns and labels:
cAMP = test: Fluorescence response of cAMP sensors to isoproterenol in HEK 293 cells co-expressing the beta adrenergic receptor; assay type: cell-based, human; settings: for Relative Change in Fluorescence: in response to isoproternol; for dF/F: relative fluorescence response to isoproternol
Protocol: To test the functionality of these 28 prototype sensors, each construct was co-expressed with the beta adrenergic receptor, which couples to the Gs signaling pathway when activated by isoproteronol, in HEK 293 cells, and the fluorescence measured as described below. Briefly, 96-well glass-bottom plates were coated with Poly-D-Lysine (Fisher Scientific, Pittsburgh, Pa.) and HEK 293 were seeded and cultured in EMEM (ATCC, Manassas, Va.) supplemented with 10% fetal bovine serum and Penicillin-Streptomycin at 37 […] and 30 ng of beta adrenergic receptor per well, using Lipofectamine 2000 Transfection Reagent (Life Technologies, Grand Island, N.Y.) according to the manufacturer's protocol, and incubated for 24-48 hours at 37° C. in 5% CO2.
Prior to screening transfected cells for fluorescence, he EMEM culture medium was removed and 1×DPBS added to each well. A Zeiss Axiovert S100TV inverted microscope equipped with computer controlled excitation/emission filter wheels, shutters, and a Qimaging Retiga Exi CCD camera (Surrey, BC Canada) was used to image cells at 25e A) supplemented with 10% fetal bovine serum and Penicillin-Streptomycin at 37hn filters were used to resolve the green fluorescence from the cAMP sensors. Cells were analyzed for increases or decreases in fluorescence intensity upon addition of isoproternol, DMSO, forskolin and IBMX. To analyze the image stacks, background fluorescence was defined as a region of the image that contained no cells. The average value of this region was subtracted frame by frame from the measurements of the mean pixel values of the fluorescent cells. Fluorescence intensity data was plotted and analyzed with IGOR (Wavemetrics, Oswego, Oreg.).
For transient expression and screening in an automated fluorescence plate reader, HEK 293T cells were cultured in Corning Co-Star Polystyrene 96-well plates coated with Poly-D-Lysine. HEK293T cells were plated at 35,000 cells/well in 100 μl growth medium per well without antibiotics so that the cells would be 90-95% confluent at the time of transfection (approximately 24 hours later). For each transfection (i.e. one well in a 96-well plate), 160 ng of plasmid DNA (120 ng sensor+40 ng receptor) was diluted in […] and then the mixture was replaced with fresh medium. Prior to scanning a plate on the Biotek Synergy Mx, EMEM culture medium was replaced with 250 μl of 1×DPBS per well. Plates were read at 25° C., using monochromators set to 488/20 nm excitation and 530/20 nm emission to resolve the green fluorescence from the cAMP sensor.

[1] = biological target: T1, G-protein coupled calcitonin receptor (Homo sapiens, UniProt P30988); test: Multiplexing of cAMP sensor with DAG sensor, calcitonin response curves; assay type: cell-based
T1 sequence (P30988 25-474): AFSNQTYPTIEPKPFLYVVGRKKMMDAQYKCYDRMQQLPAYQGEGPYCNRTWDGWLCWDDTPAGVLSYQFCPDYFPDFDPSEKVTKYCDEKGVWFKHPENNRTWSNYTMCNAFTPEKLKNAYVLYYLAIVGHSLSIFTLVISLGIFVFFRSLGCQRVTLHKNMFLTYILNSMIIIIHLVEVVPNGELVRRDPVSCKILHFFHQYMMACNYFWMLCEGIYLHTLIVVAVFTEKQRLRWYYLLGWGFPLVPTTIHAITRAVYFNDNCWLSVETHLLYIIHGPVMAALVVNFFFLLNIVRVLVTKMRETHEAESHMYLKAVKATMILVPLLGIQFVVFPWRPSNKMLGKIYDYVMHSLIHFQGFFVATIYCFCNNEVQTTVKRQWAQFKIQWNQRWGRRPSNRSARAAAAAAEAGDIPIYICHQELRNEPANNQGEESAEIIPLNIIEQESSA
From the text: FIG. 6 Multiplexing of a cAMP biosensor based on a single fluorescent protein with a second biosensor of a different color. The G-protein coupled calcitonin receptor was stimulated with different amounts of calcitonin (shown on the X axis) to produce response curves for a red cAMP and a green DAG sensor. The Y axis on the right indicates cAMP response. The Y axis on the left indicates DAG response.
The ability of cAMP sensor proteins of the present invention to be multiplexed with other fluorescence based sensors was tested. Briefly, cells were co-transfected with expression vector expressing a cAMP sensor protein of the present invention comprising a green fluorescent protein, and a DAG biosensor comprising a red fluorescent protein. The cells were cultured, treated with isoptroterenol and the resulting fluorescence measured as described in Example 1A. The results of this study are show in FIG. 6.

[2] = HEK 293 cells, beta adrenergic receptor co-expressed

G-protein pathways stimulated (cAMP sensor / DAG sensor) ([1]; low concentrations)	Substance	Relative Change in Fluorescence (cAMP) [%]	dF/F (cAMP; [2])	dF/F (cAMP; only cell of the column printed with %) [%]	G-protein pathways stimulated (cAMP sensor / DAG sensor) ([1]; higher concentrations)
–	EPAC2gfpRAP1B: cpEGFP tethered between Epac2 and Rap1B; SEQID 27 in Table 1, SEQ ID NO: 28 in Table 3	26	–	–	–
–	EcpG9: prototype cAMP sensor, cpEGFP in Epac2 at L457; SEQID 30 in Table 1, SEQ ID NO: 31 in Table 3	13	13	–	–
–	EcpG10: prototype cAMP sensor, cpEGFP in Epac2 at R458; SEQID 25 in Table 1, SEQ ID NO: 26 in Table 3	−30	−30	–	–
–	EcpG12: prototype cAMP sensor, cpEGFP in Epac2 at V460; SEQID 11 in Table 1, SEQ ID NO: 12 in Table 3	−36	−36	–	–
–	EcpG13: prototype cAMP sensor, cpEGFP in Epac2 at E461; SEQID 28 in Table 1, SEQ ID NO: 29 in Table 3	−22	−22	–	–
–	EcpG15: prototype cAMP sensor, cpEGFP in Epac2 at N463; SEQID 17 in Table 1, SEQ ID NO: 18 in Table 3	34	34	–	–
–	EcpG18: prototype cAMP sensor, cpEGFP in Epac2 at A486; SEQID 32 in Table 1, SEQ ID NO: 33 in Table 3	12	12	–	–
–	EcpG22: prototype cAMP sensor, cpEGFP in Epac2 at V341; SEQID 31 in Table 1, SEQ ID NO: 32 in Table 3	−14	–	−14	–
–	EcpG23: prototype cAMP sensor, cpEGFP in Epac2 at L518; SEQID 29 in Table 1, SEQ ID NO: 30 in Table 3	−16	−16	–	–
–	EcpG24: prototype cAMP sensor, cpEGFP in Epac2 at A520; SEQID 33 in Table 1, SEQ ID NO: 34 in Table 3	−11	−11	–	–
can stimulate just one G-protein pathway	calcitonin	–	–	–	two different G-protein pathways have been activated
